# In US20230000829A1, “COMPOSITION FOR SLEEP IMPROVEMENT COMPRISING ERGOTHIONEINE OR SALT THEREOF” (priority 2019, published 2023):
# Entries after “also recorded” stand apart in the source; their conditions may differ.
# Tests used:
# [1] = L-ergothioneine concentration in plasma of human subjects; assay type: in vivo; details: 20 mg capsule daily for four weeks, week 4 vs pre-examination and control food group, FIG. 20
# Protocol: (§1) In order to examine a sleep improving effect such as a sleep quality-improving effect of a supplement containing ergothioneine, male and female adults feeling stressed on a daily basis and dissatisfied with their sleep (test food group: 46 subjects; control food group: 46 subjects; 92 subjects in total) were subjected to a placebo-controlled, randomized, double-blind, parallel-group comparative study in which one capsule containing 20 mg of L-ergothioneine (test food) or one capsule not containing L-ergothioneine (control food) was ingested daily for four weeks. The sleep quality and sleep duration were evaluated by measuring brain waves during sleep using an electroencephalograph “SLEEPSCOPE” (product name) available from SleepWell Co., Ltd. A 2-sample t-test (**: p<0.01, *: p<0.05, t: p<0.1, vs. control food group) was performed for significance testing between the groups.
# (§2) Brain waves during sleep were measured before the start of ingestion of the food for evaluation (pre-test) and after four weeks of ingestion of the food. The pre-test measurement of brain waves was regarded as “pre-examination”, and the measurement of brain waves after four weeks of ingestion of the food for evaluation was regarded as “week 4 examination”. The L-ergothioneine concentration (μM) in blood of each subject was also measured at the pre-examination and at the week 4 examination.
# Sprague-Dawley (SD) rat = test: Stress sleep disorder model, brain waves during sleep; assay type: in vivo; details: stress-induced rats, oral about 20 mg per 1 kg body weight per day
# Protocol: The following method was used to induce stress in rats in an ergothioneine administration group (N=5) and a non-administration group (N=7). During the test period, the rats were kept under a 12-hour light-dark cycle. A Sprague-Dawley (SD) rat (8 weeks of age) was introduced into a cage where a larger and highly aggressive Brown-Norway (BN) rat was kept. These two rats were housed together for 10 minutes to make sure contact (direct contact) between the rats as the BN rat chasing after or hovering over the SD rat. Then, the SD rat and the BN rat were kept together for 24 hours in a breeding cage having compartments separated by a transparent perforated partition (indirect contact). Stress was induced in the SD rat in the same manner on the following day. A BM rat different from the one on the preceding day was used as a stressor. Stress was induced once a day for five consecutive days (from Monday to Friday), and then only indirect contact was allowed for two days on the weekend. This process was repeated for two cycles. Thus, stress induction under conditions combining direct contact and indirect contact was performed 10 times in total, and stress was induced for 12 days in total. The ergothioneine administration group was orally administered with L-ergothioneine from seven days before stress induction to the end of stress induction. L-ergothioneine was used in the form of an aqueous solution of L-ergothioneine dissolved in water (L-ergothioneine concentration: 0.25 mg/mL). The dosage of L-ergothioneine was about 20 mg per 1 kg body weight per day. The non-administration group was orally administered with water instead of the aqueous L-ergothioneine solution. The control (stress (−)) group (N=4) was orally administered with water without the stress induction. Electrodes were implanted in the rats to record brain waves, and brain waves during sleep and wakefulness were recorded for 24 hours after the end of stress induction. NREM sleep, REM sleep, and awake state were determined from the brain waves using biological signal analysis software Spike2 (available from CED), and the duration of episode of each of these states was calculated. Tukey's multiple comparisons test (*: p<0.05, **: p<0.005, ****: p<0.0001) was performed for significance testing.
# [2] = system: male and female adults feeling stressed on a daily basis and dissatisfied with their sleep; test: Sleep quality evaluation test for humans (electroencephalograph SLEEPSCOPE); assay type: in vivo, human; details: 20 mg capsule daily for four weeks
# Protocol: as §1
# Two types of food indistinguishable in terms of appearance, flavor, and the like were used for evaluation. • Test food: capsule containing a test substance (L-ergothioneine 20 mg) • Control food: capsule not containing a test substance
# Each type of food for evaluation contained raw materials such as dextrin, hydroxypropyl cellulose, carrageenan, potassium chloride, and titanium oxide, in addition to the test substance. The control food was produced using the same raw materials used in the test food, except that the test substance (L-ergothioneine) was not added.
# as §2
# NREM sleep is divided into three stages 1 to 3 according to sleep depth by measuring brain waves using an electroencephalograph “SLEEPSCOPE” available from SleepWell Co., Ltd.
# Ratio (%) of each sleep stage (NREM sleep stage 1, 2, or 3) to total sleep time; number of wake after sleep onset (frequency); number of wake after sleep onset in two hours before waking up (frequency), NREM sleep latency (min); 5 power in the first sleep cycle (delta power during NREM sleep in the first sleep cycle) (μV^2); and sleep efficiency (%).
# FIGS. 4 to 19 show results of main evaluation items for sleep quality (ratio of total time of each sleep stage to total sleep time; number of wake after sleep onset; number of wake after sleep onset in two hours before waking up; NREM sleep latency; 5 (delta) power in the first sleep cycle, and sleep efficiency) and sleep duration, as determined by measuring brain waves. FIGS. 4 to 19 show the measured values and the amount of change between measurements at the pre-examination and at the week 4 examination (**: p<0.01, *: p<0.05, †: p<0.1, vs. control food group). The amount of change is a value obtained by subtracting the measured value at the pre-examination from the measured value at the week 4 examination (“measured value at week 4 examination”−“measured value at pre-examination”). The results shown in FIG. 4 to FIG. 20 are presented in means±standard error for each group. A 2-sample t-test (**: p<0.01, *: p<0.05, †: p<0.1, vs. control food group) was performed for significance testing between the groups. In FIG. 4, FIG. 5, FIG. 6, FIG. 8, FIG. 10, FIG. 12, FIG. 14, FIG. 16, FIG. 18, and FIG. 20, “Pre.” refers to the pre-examination, and “Post.” refers to the week 4 examination. The solid lines represent the test food group, and the dashed lines represent the control food group. In FIG. 7, FIG. 9, FIG. 11, FIG. 13, FIG. 15, FIG. 17, and FIG. 19, the black bars represent the test food group, and the white bars represent the control food group.
# [3] = light phase, vs non-administration group, FIG. 1
smiles,measurement,setting,value
C[N+](C)(C)[C@@H](Cc1c[nH]c(=S)[nH]1)C(=O)[O-] [L-ergothioneine],L-ergothioneine concentration in plasma,[1],increased the L-ergothioneine concentration in plasma
same,fragmentation in REM sleep (number of sleep fragmentation episodes),"Sprague-Dawley (SD) rat; light phase, FIG. 2",reduced fragmentation to a level comparable to that of the control group
same,duration of episode of NREM sleep (NREM),Sprague-Dawley (SD) rat; [3],improved these phenomena to the level of the control group without stress induction
same,duration of episode of REM sleep (REM),Sprague-Dawley (SD) rat; [3],improved these phenomena to the level of the control group without stress induction
same,ratio of NREM sleep duration to total sleep time,Sprague-Dawley (SD) rat,increased the ratio of NREM sleep duration to total sleep time
same,sleep latency (latency from the start of the light phase to the first episode of NREM sleep),Sprague-Dawley (SD) rat; FIG. 3,to a level comparable to that of control group without stress induction; also recorded: exhibited an action to reduce an increase in sleep latency
same,number and duration of wake after sleep onset,[2],reduced the number and duration of wake after sleep onset
same,ratio of NREM sleep duration (total of stages 1 to 3) to total sleep time,[2]; vs control food group,increased the ratio of NREM sleep duration to total sleep time
same,sleep latency,[2]; vs control food group,"showed a reduced sleep latency, compared to the control food group"
same,ratio of NREM sleep stage 1 (N1) to total sleep time,"[2]; vs control food group, FIG. 4, 7",significantly suppressed
same,number of wake after sleep onset,"[2]; vs control food group, FIG. 8, 9",significantly suppressed sleep fragmentation
same,number of wake after sleep onset in two hours before waking up,"[2]; vs control food group, FIG. 10, 11",significantly suppressed sleep fragmentation
same,NREM sleep latency (time to reach deep sleep),"[2]; vs control food group, FIG. 12, 13",reduced an increase in time to reach deep sleep
same,5 power in the first sleep cycle,"[2]; vs control food group, FIG. 14, 15",increased 5 power in the first sleep cycle
same,sleep efficiency,"[2]; vs control food group, FIG. 16, 17",increased sleep efficiency
same,sleep duration,"[2]; vs control food group, FIG. 18, 19",increased sleep duration
